Measured values reported in patent publication US10961200B2, “Small molecule inhibitors of lactate dehydrogenase and methods of use thereof” (THE UNITED STATES OF AMERICA, AS REPRESENTED BY THE …, priority 2014, dated 2021).

Target: Human LDHA (Homo sapiens (Human), UniProt P00338)
Test: human LDHA primary biochemical assay (resazurin/diaphorase coupled, fluorescence)
Details: LDHA inhibitory activity, activity level based on IC50 (Table 7)
Source text: Test compounds were placed in a Greiner Bio-One (Monroe, N.C.) 1536-well black solid bottom assay plate. 200 millimolar (mM) Tris HCl, pH 7.4, 100 micromolar […] EDTA and 0.01% TWEEN-20™, final concentration, was used as the assay buffer. The LDHA reagent was 2 nanomolar (nM) Human LDHA (Meridian Life Science, Inc., Memphis, Tenn.), final concentration, in assay buffer.

SMILES | IC50
Cc1ccc(-c2nn(-c3nc(C(=O)O)cs3)cc2Cc2ccc(S(N)(=O)=O)cc2)cc1-c1cc(F)cc(F)c1 [Compound 489, 2-(3-(3′,5′-difluoro-6-methyl-[1,1′-biphenyl]-3-yl)-4-(4-sulfamoylbenzyl)-1H-pyrazol-1-yl)thiazole-4-carboxylic acid] | 100 to 1000 nM
Cc1ccc(-c2nn(-c3nc(C(=O)O)cs3)cc2Cc2ccc(S(N)(=O)=O)cc2)cc1-c1ccncc1 [Compound 490, 2-(3-(4-methyl-3-(pyridin-4-yl)phenyl)-4-(4-sulfamoylbenzyl)-1H-pyrazol-1-yl)thiazole-4-carboxylic acid] | 100 to 1000 nM
Cc1ccc(-c2nn(-c3nc(C(=O)O)cs3)cc2Cc2ccc(S(N)(=O)=O)cc2)cc1-c1ccc(F)cc1 [Compound 498, 2-(3-(4′-fluoro-6-methyl-[1,1′-biphenyl]-3-yl)-4-(4-sulfamoylbenzyl)-1H-pyrazol-1-yl)thiazole-4-carboxylic acid] | 100 to 1000 nM
CCc1cccc(-c2cc(-c3nn(-c4nc(C(=O)O)cs4)cc3Cc3ccc(S(N)(=O)=O)cc3)ccc2F)c1 [Compound 513, 2-(3-(3′-ethyl-6-fluoro-[1,1′-biphenyl]-3-yl)-4-(4-sulfamoylbenzyl)-1H-pyrazol-1-yl)thiazole-4-carboxylic acid] | 100 to 1000 nM
NS(=O)(=O)c1ccc(Cc2cn(-c3nc(C(=O)O)cs3)nc2-c2ccc(F)c(-c3cc(Cl)cc(Cl)c3)c2)cc1 [Compound 514, 2-(3-(3′,5′-dichloro-6-fluoro-[1,1′-biphenyl]-3-yl)-4-(4-sulfamoylbenzyl)-1H-pyrazol-1-yl)thiazole-4-carboxylic acid] | 1000 to 57000 nM
NS(=O)(=O)c1ccc(Cc2cn(-c3nc(C(=O)O)cs3)nc2-c2ccc(F)c(-c3ccc(F)c(F)c3)c2)cc1 [Compound 517, 2-(4-(4-sulfamoylbenzyl)-3-(3′,4′,6-trifluoro-[1,1′-biphenyl]-3-yl)-1H-pyrazol-1-yl)thiazole-4-carboxylic acid] | 100 to 1000 nM
COc1cc(-c2cc(-c3nn(-c4nc(C(=O)O)cs4)cc3Cc3ccc(S(N)(=O)=O)cc3)ccc2F)ccc1F [Compound 518, 2-(3-(4′,6-difluoro-3′-methoxy-[1,1′-biphenyl]-3-yl)-4-(4-sulfamoylbenzyl)-1H-pyrazol-1-yl)thiazole-4-carboxylic acid] | < 100 nM
Cc1cccc(-c2cccc(-c3nn(-c4nc(C(=O)O)cs4)cc3Cc3ccc(S(N)(=O)=O)cc3)c2)c1 [Compound 519, 2-(3-(3′-methyl-[1,1′-biphenyl]-3-yl)-4-(4-sulfamoylbenzyl)-1H-pyrazol-1-yl)thiazole-4-carboxylic acid] | < 100 nM
COc1cccc(-c2cccc(-c3nn(-c4nc(C(=O)O)cs4)cc3Cc3ccc(S(N)(=O)=O)cc3)c2)c1 [Compound 521, 2-(3-(3′-methoxy-[1,1′-biphenyl]-3-yl)-4-(4-sulfamoylbenzyl)-1H-pyrazol-1-yl)thiazole-4-carboxylic acid] | < 100 nM
NS(=O)(=O)c1ccc(Cc2cn(-c3nc(C(=O)O)cs3)nc2-c2cccc(-c3cccnc3)c2)cc1 [Compound 522, 2-(3-(3-(pyridin-3-yl)phenyl)-4-(4-sulfamoylbenzyl)-1H-pyrazol-1-yl)thiazole-4-carboxylic acid] | 100 to 1000 nM
NS(=O)(=O)c1ccc(Cc2c(CC3CC3)nn(-c3nc(C(=O)O)cs3)c2-c2cc(F)cc(-c3cccc(F)c3)c2)cc1 [Compound 525, 4-((3-(cyclopropylmethyl)-5-(3′,5-difluoro-[1,1′-biphenyl]-3-yl)-1-(4-((oxo-l3-methyl)-l3-oxidanyl)thiazol-2-yl)-1H-pyrazol-4-yl)methyl)benzenesulfonamide] | 1000 to 57000 nM
CC(C)=Cc1cc(-c2nn(-c3nc(C(=O)O)cs3)c(CC3CC3)c2Cc2ccc(S(N)(=O)=O)c(F)c2)ccc1F [Compound 530, 2-(5-(cyclopropylmethyl)-3-(4-fluoro-3-(2-methylprop-1-en-1-yl)phenyl)-4-(3-fluoro-4-sulfamoylbenzyl)-1H-pyrazol-1-yl)thiazole-4-carboxylic acid] | < 100 nM
NS(=O)(=O)c1ccc(Cc2c(-c3ccc(F)c(/C=C/C4CC4)c3)nn(-c3nc(C(=O)O)cs3)c2CC2CC2)cc1F [Compound 532, (E)-2-(5-(cyclopropylmethyl)-3-(3-(2-cyclopropylvinyl)-4-fluorophenyl)-4-(3-fluoro-4-sulfamoylbenzyl)-1H-pyrazol-1-yl)thiazole-4-carboxylic acid] | < 100 nM

The remaining lines, values ahead:

IC50 | SMILES
< 100 nM | Cc1ccc(-c2cc(-c3nn(-c4nc(C(=O)O)cs4)c(C4CC4)c3Cc3ccc(S(N)(=O)=O)cc3)ccc2F)cc1 [Compound 484, 2-(5-cyclopropyl-3-(6-fluoro-4′-methyl-[1,1′-biphenyl]-3-yl)-4-(4-sulfamoylbenzyl)-1H-pyrazol-1-yl)thiazole-4-carboxylic acid]
< 100 nM | Cc1ccc(-c2nn(-c3nc(C(=O)O)cs3)cc2Cc2ccc(S(N)(=O)=O)cc2)cc1-c1cccnc1 [Compound 486, 2-(3-(4-methyl-3-(pyridin-3-yl)phenyl)-4-(4-sulfamoylbenzyl)-1H-pyrazol-1-yl)thiazole-4-carboxylic acid]
< 100 nM | Cc1ccc(-c2nn(-c3nc(C(=O)O)cs3)cc2Cc2ccc(S(N)(=O)=O)cc2)cc1-c1cccc(N)c1 [Compound 487, 2-(3-(3′-amino-6-methyl-[1,1′-biphenyl]-3-yl)-4-(4-sulfamoylbenzyl)-1H-pyrazol-1-yl)thiazole-4-carboxylic acid]
100 to 1000 nM | CCc1cccc(-c2cc(-c3nn(-c4nc(C(=O)O)cs4)cc3Cc3ccc(S(N)(=O)=O)cc3)ccc2C)c1 [Compound 488, 2-(3-(3′-ethyl-6-methyl-[1,1′-biphenyl]-3-yl)-4-(4-sulfamoylbenzyl)-1H-pyrazol-1-yl)thiazole-4-carboxylic acid]
100 to 1000 nM | Cc1ccc(-c2nn(-c3nc(C(=O)O)cs3)cc2Cc2ccc(S(N)(=O)=O)cc2)cc1-c1ccccc1 [Compound 491, 2-(3-(6-methyl-[1,1′-biphenyl]-3-yl)-4-(4-sulfamoylbenzyl)-1H-pyrazol-1-yl)thiazole-4-carboxylic acid]
100 to 1000 nM | Cc1ccc(-c2nn(-c3nc(C(=O)O)cs3)cc2Cc2ccc(S(N)(=O)=O)cc2)cc1-c1ccc(F)c(F)c1 [Compound 492, 2-(3-(3′,4′-difluoro-6-methyl-[1,1′-biphenyl]-3-yl)-4-(4-sulfamoylbenzyl)-1H-pyrazol-1-yl)thiazole-4-carboxylic acid]
100 to 1000 nM | Cc1cc(-c2cc(-c3nn(-c4nc(C(=O)O)cs4)cc3Cc3ccc(S(N)(=O)=O)cc3)ccc2C)ccc1F [Compound 493, 2-(3-(4′-fluoro-3′,6-dimethyl-[1,1′-biphenyl]-3-yl)-4-(4-sulfamoylbenzyl)-1H-pyrazol-1-yl)thiazole-4-carboxylic acid]
100 to 1000 nM | COc1ccc(-c2cc(-c3nn(-c4nc(C(=O)O)cs4)cc3Cc3ccc(S(N)(=O)=O)cc3)ccc2C)cc1F [Compound 494, 2-(3-(3′-fluoro-4′-methoxy-6-methyl-[1,1′-biphenyl]-3-yl)-4-(4-sulfamoylbenzyl)-1H-pyrazol-1-yl)thiazole-4-carboxylic acid]
100 to 1000 nM | Cc1cc(C)cc(-c2cc(-c3nn(-c4nc(C(=O)O)cs4)cc3Cc3ccc(S(N)(=O)=O)cc3)ccc2C)c1 [Compound 495, 2-(4-(4-sulfamoylbenzyl)-3-(3′,5′,6-trimethyl-[1,1′-biphenyl]-3-yl)-1H-pyrazol-1-yl)thiazole-4-carboxylic acid]
100 to 1000 nM | Cc1ccc(-c2cc(-c3nn(-c4nc(C(=O)O)cs4)cc3Cc3ccc(S(N)(=O)=O)cc3)ccc2C)cc1C#N [Compound 496, 2-(3-(3′-cyano-4′,6-dimethyl-[1,1′-biphenyl]-3-yl)-4-(4-sulfamoylbenzyl)-1H-pyrazol-1-yl)thiazole-4-carboxylic acid]
100 to 1000 nM | Cc1ccc(-c2nn(-c3nc(C(=O)O)cs3)cc2Cc2ccc(S(N)(=O)=O)cc2)cc1-c1cccc(F)c1 [Compound 497, 2-(3-(3′-fluoro-6-methyl-[1,1′-biphenyl]-3-yl)-4-(4-sulfamoylbenzyl)-1H-pyrazol-1-yl)thiazole-4-carboxylic acid]
< 100 nM | Cc1ccc(-c2nn(-c3nc(C(=O)O)cs3)c(C3CC3)c2Cc2ccc(S(N)(=O)=O)cc2)cc1-c1cccnc1 [Compound 499, 2-(5-cyclopropyl-3-(4-methyl-3-(pyridin-3-yl)phenyl)-4-(4-sulfamoylbenzyl)-1H-pyrazol-1-yl)thiazole-4-carboxylic acid]
< 100 nM | Cc1ccc(-c2nn(-c3nc(C(=O)O)cs3)c(C3CC3)c2Cc2ccc(S(N)(=O)=O)cc2)cc1-c1cccc(N)c1 [Compound 500, 2-(3-(3′-amino-6-methyl-[1,1′-biphenyl]-3-yl)-5-cyclopropyl-4-(4-sulfamoylbenzyl)-1H-pyrazol-1-yl)thiazole-4-carboxylic acid]
100 to 1000 nM | Cc1ccc(-c2cc(-c3nn(-c4nc(C(=O)O)cs4)cc3Cc3ccc(S(N)(=O)=O)cc3)ccc2F)cc1C [Compound 516, 2-(3-(6-fluoro-3′,4′-dimethyl-[1,1′-biphenyl]-3-yl)-4-(4-sulfamoylbenzyl)-1H-pyrazol-1-yl)thiazole-4-carboxylic acid]
100 to 1000 nM | Cc1ccc(-c2cc(-c3nn(-c4nc(C(=O)O)cs4)cc3Cc3ccc(S(N)(=O)=O)cc3)ccc2F)cc1F [Compound 520, 2-(3-(3′,6-difluoro-4′-methyl-[1,1′-biphenyl]-3-yl)-4-(4-sulfamoylbenzyl)-1H-pyrazol-1-yl)thiazole-4-carboxylic acid]
100 to 1000 nM | Nc1cccc(-c2cccc(-c3nn(-c4nc(C(=O)O)cs4)cc3Cc3ccc(S(N)(=O)=O)cc3)c2)c1 [Compound 524, 2-(3-(3′-amino-[1,1′-biphenyl]-3-yl)-4-(4-sulfamoylbenzyl)-1H-pyrazol-1-yl)thiazole-4-carboxylic acid]
